Test results: patent publication US9212132B2, “(Meth)acrylic acid ester, activation energy ray curing composition, and inkjet recording ink” (Ricoh Company Ltd., priority 2011, dated 2015)

What was measured:
[1] = Evaluation of photopolymerization reactivity (Photo-DSC); assay type: physicochemical; conditions: ink: 950 mg monomer compound + 50 mg IRGACURE 907; 365 nm, 200 mW/cm^2
Method: Inks for evaluation were each prepared by mixing 950 mg of the monomer compound presented in a respective column of each Example or Comparative Example in Table 1 with 50 mg of 2-methyl-1-[4-(methylthio)phenyl]-2-morpholinopropan-1-one (IRGACURE 907, manufactured by BASF Japan Ltd.) serving as a polymerization initiator, by means of a magnetic stirrer.
An evaluation test for photopolymerization reactivity was performed on each ink using a measuring device combining DSC-7020 manufactured by Seiko Instruments Inc. with a spot light source (LA-410UV) manufactured by HAYASHI WATCH-WORKS CO., LTD. (referred to as Photo-DSC hereinafter). As for the light for radiation, light having wavelength of 365 nm was used, and the light quantity was set to 200 mW/cm^2.
The calorific value of the polymerization reaction carried out after radiation of light was measured by Photo-DSC. A measurement of the calorific value, which was obtained when light was applied for sufficient time to complete a polymerization reaction of the monomer compound, was performed twice on one sample. The calorific value obtained with the first measurement contains the calorific value from radiation of light as well as the calorific value from the polymerization reaction of the monomer compound. Therefore, the sample which completed the polymerization reaction by the first measurement was subjected to radiation of light under the same condition, and the calorific value of the heat other than the heat generated from the polymerization reaction of the monomer compound was measured. The calorific value of the polymerization reaction of the monomer compound was determined with a difference between the calorific value obtained in the first measurement and the calorific value obtained in the second measurement.
As for the exothermic characteristic thereof, the time required to achieve the maximum calorific value from the time for starting radiation of light was determined as T1 (sec.), which was used as an index for comparing the speed of the photopolymerization reaction.

[2] = Evaluation of photocuring ability (photorheometer); assay type: physicochemical; conditions: 365 nm; for Photocuring (photorheometer) Elastic modulus: ink: 950 mg monomer + 50 mg IRGACURE 907, 50 mW/cm^2, 10 μm gap, saturated elastic modulus; for Photocuring (photorheometer) Curing energy: light energy applied until elastic modulus saturated; for Photocuring (photorheometer) Curing energy / Photocuring result in words (curing state, elastic modulus): 50 mW/cm^2
Method: An evaluation for curing ability from photopolymerization was performed on each ink using a measuring device combining a rheometer VAR200AD, manufactured by REOLOGICA Instruments AB, with an LED light source (LIGHTNINGCURE LC-L1) manufactured by Hamamatsu Photonics K.K. (referred to as Photorheometer, hereinafter).
A measurement was performed in the following manner. A sample was placed in a gap of 10 μm between a pair of corm plates each having a diameter of 20 mm, and light (365 nm, 50 mW/cm^2) emitted from the LED light source was applied to the sample. A change in viscoelsticity caused by curing was measured, and the time when the elastic modulus (Pa) was saturated was determined as completion of curing. Based on the measurement result, the terminal point of the elastic modulus was determined, which was determined as an index of a curing level. Typically, the level of 1×10^4 (Pa) is a level where the sample is completely cured. Moreover, light energy (curing energy) applied until the elastic modulus was saturated was calculated by the product of light radiation intensity (here, which was 50 mW/cm^2) and a period (sec.) for light radiation.

C=C(C)C(=O)OCCN1CCOCC1 [Commercial product (e), reference compound]
Photopolymerization reactivity (Photo DSC) T1, time required to achieve the maximum calorific value from start of light radiation [1]: 30.3 s
Photocuring (photorheometer) Elastic modulus [2]: 8.6*10^4 Pa
Photocuring (photorheometer) Curing energy [2]: 2,050 mJ/cm^2

C=CC(=O)OCC(COC(=O)N(CC)CC)OC(=O)C=C (centres unmarked) [G-3]
Photopolymerization reactivity (Photo DSC) T1, time required to achieve the maximum calorific value from start of light radiation [1]: 2.4 s
Photocuring (photorheometer) Elastic modulus [2]: 1.0*10^5 Pa
Photocuring (photorheometer) Curing energy [2]: 140 mJ/cm^2

C=CC(=O)OCCOc1ccccc1 [Commercial product (a), reference compound]
Photopolymerization reactivity (Photo DSC) T1, time required to achieve the maximum calorific value from start of light radiation [1]: 2.5 s
Photocuring (photorheometer) Elastic modulus [2]: 4.8*10^4 Pa
Photocuring (photorheometer) Curing energy [2]: 200 mJ/cm^2

C=C(C)C(=O)OC1CCN(C(=O)OCC)CC1 [F-2]
Photopolymerization reactivity (Photo DSC) T1, time required to achieve the maximum calorific value from start of light radiation [1]: 7.0 s
Photocuring (photorheometer) Elastic modulus [2]: 9.4*10^4 Pa
Photocuring (photorheometer) Curing energy [2]: 430 mJ/cm^2

C=CC(=O)OCCN1CCOCC1 [Commercial product (d), reference compound]
Photopolymerization reactivity (Photo DSC) T1, time required to achieve the maximum calorific value from start of light radiation [1]: 4.5 s
Photocuring (photorheometer) Elastic modulus [2]: 1.3*10^4 Pa
Photocuring (photorheometer) Curing energy [2]: 365 mJ/cm^2

C=CC(=O)OCCOC(=O)N1CCOCC1 [D-1]
Photopolymerization reactivity (Photo DSC) T1, time required to achieve the maximum calorific value from start of light radiation [1]: 3.2 s
Photocuring (photorheometer) Elastic modulus [2]: 7.9*10^4 Pa
Photocuring (photorheometer) Curing energy [2]: 175 mJ/cm^2

C=CC(=O)OCC(CC)(COC(=O)C=C)COC(=O)N(CC)CC [J-3]
Photopolymerization reactivity (Photo DSC) T1, time required to achieve the maximum calorific value from start of light radiation [1]: 2.4 s
Photocuring (photorheometer) Elastic modulus [2]: 1.0*10^5 Pa
Photocuring (photorheometer) Curing energy [2]: 100 mJ/cm^2

C=C(C)C(=O)OCCOC(=O)N(CC)CC [B-2]
Photopolymerization reactivity (Photo DSC) T1, time required to achieve the maximum calorific value from start of light radiation [1]: 10.9 s
Photocuring (photorheometer) Elastic modulus [2]: 8.0*10^4 Pa
Photocuring (photorheometer) Curing energy [2]: 1,950 mJ/cm^2

C=C(C)C(=O)OCC(CC)(COC(=O)C(=C)C)COC(=O)N(CC)CC [J-4]
Photopolymerization reactivity (Photo DSC) T1, time required to achieve the maximum calorific value from start of light radiation [1]: 3.0 s
Photocuring (photorheometer) Elastic modulus [2]: 1.0*10^5 Pa
Photocuring (photorheometer) Curing energy [2]: 110 mJ/cm^2

C=CC(=O)OCCOC(=O)N1CCCCC1 [E-1]
Photopolymerization reactivity (Photo DSC) T1, time required to achieve the maximum calorific value from start of light radiation [1]: 4.5 s
Photocuring (photorheometer) Elastic modulus [2]: 5.0*10^4 Pa
Photocuring (photorheometer) Curing energy [2]: 380 mJ/cm^2

C=C(C)C(=O)OCC(COC(=O)N(CC)CC)OC(=O)C(=C)C (centres unmarked) [G-4]
Photopolymerization reactivity (Photo DSC) T1, time required to achieve the maximum calorific value from start of light radiation [1]: 4.8 s
Photocuring (photorheometer) Elastic modulus [2]: 1.0*10^5 Pa
Photocuring (photorheometer) Curing energy [2]: 210 mJ/cm^2

C=CC(=O)OCCSCC [Ref. Syn. Ex. 1, 2-acryloxy ethylethyl sulfide, reference compound]
Photopolymerization reactivity (Photo DSC) T1, time required to achieve the maximum calorific value from start of light radiation [1]: 2.5 s
Photocuring result in words (curing state, elastic modulus) [2]: (not cured)
Photocuring result in words (curing state, elastic modulus) ([2]; listed as Comparative Example 4): extremely low elastic modulus
Photocuring (photorheometer) Elastic modulus [2]: 1.1*10^3 Pa

C=C(C)C(=O)OCCOC(=O)N1CCOCC1 [D-2]
Photopolymerization reactivity (Photo DSC) T1, time required to achieve the maximum calorific value from start of light radiation [1]: 7.0 s
Photocuring (photorheometer) Elastic modulus [2]: 7.6*10^4 Pa
Photocuring (photorheometer) Curing energy [2]: 380 mJ/cm^2

C=CC(=O)OCCOC(=O)N(CC)CC [B-1]
Photopolymerization reactivity (Photo DSC) T1, time required to achieve the maximum calorific value from start of light radiation [1]: 3.2 s
Photocuring (photorheometer) Elastic modulus [2]: 9.4*10^3 Pa
Photocuring (photorheometer) Curing energy [2]: 520 mJ/cm^2

C=C(C)C(=O)OCCOC(=O)N1CCCCC1 [E-2]
Photopolymerization reactivity (Photo DSC) T1, time required to achieve the maximum calorific value from start of light radiation [1]: 12.0 s
Photocuring (photorheometer) Elastic modulus [2]: 9.0*10^4 Pa
Photocuring (photorheometer) Curing energy [2]: 840 mJ/cm^2

C=CC(=O)OCCOC(=O)NCCCC [Commercial product (c), reference compound]
Photopolymerization reactivity (Photo DSC) T1, time required to achieve the maximum calorific value from start of light radiation [1]: 2.5 s
Photocuring (photorheometer) Elastic modulus [2]: 3.2*10^4 Pa
Photocuring (photorheometer) Curing energy [2]: 210 mJ/cm^2

C=C(C)C(=O)OCCOc1ccccc1 [Commercial product (b), reference compound]
Photopolymerization reactivity (Photo DSC) T1, time required to achieve the maximum calorific value from start of light radiation [1]: 19.3 s
Photocuring (photorheometer) Elastic modulus [2]: 8.0*10^4 Pa
Photocuring (photorheometer) Curing energy [2]: 2,020 mJ/cm^2

C=C(C)C(=O)OCCSCC [Ref. Syn. Ex. 2, 2-methacryloxyethylethyl sulfide, reference compound]
Photopolymerization reactivity (Photo DSC) T1, time required to achieve the maximum calorific value from start of light radiation [1]: 10.3 s
Photocuring result in words (curing state, elastic modulus) [2]: (not cured)
Photocuring result in words (curing state, elastic modulus) ([2]; listed as Comparative Example 7): extremely low elastic modulus
Photocuring (photorheometer) Elastic modulus [2]: <1.0 Pa

C=CC(=O)OC1CCN(C(=O)OCC)CC1 [F-1]
Photopolymerization reactivity (Photo DSC) T1, time required to achieve the maximum calorific value from start of light radiation [1]: 3.2 s
Photocuring (photorheometer) Elastic modulus [2]: 8.4*10^4 Pa
Photocuring (photorheometer) Curing energy [2]: 150 mJ/cm^2
